In patent US12337003B2, “Pharmaceutical compositions for combination therapy” (Intercept Pharmaceuticals, Inc., priority 2015, dated 2025):

Legend:
[1] = tested on: fibrosis induced by common bile duct ligation in mice; test: Bile duct ligation (BDL) model, Sirius-red staining of liver sections; format: in vivo, C57BL/6 mice; conditions: mean ± SD, OCA 5 mg/kg and/or atorvastatin 10 mg/kg orally once daily day 0 to day 6
Method: This experiment was performed to evaluate the effects of OCA and atorvastatin alone, and in combination, on fibrosis induced by common bile duct ligation in mice.
Male C57BL/6 mice (6 weeks of age) were obtained from Japan SLC. The animals were maintained in a specific pathogen free facility under controlled conditions of temperature (23±2° C.), humidity (45±10%), lighting (12-hour artificial light and dark cycles; light from 8:00 to 20:00), and air exchange (air exchange rate: more than 40 times/hour). A high pressure (20±4 Pa) was maintained in the experimental room to prevent contamination of the facility. The animals were housed in KN-600 (Natsume Seisakusho, Japan) with a maximum of 6 mice per cage. […]
Viability, clinical signs and behavior were monitored daily. Body weight was recorded daily during the treatment period. Food consumption was measured twice weekly per cage during the treatment period. […]
To visualize collagen deposition, Bouin's-fixed left lateral liver sections were stained using picro-Sirius red solution (Waldeck, Germany). For quantitative analysis of the fibrosis area, bright field images of Sirius red-stained sections were captured around the central vein using a digital camera (DFC295; Leica, Germany) at 100-fold magnification, and the positive areas in 5 fields/section were measured using ImageJ software (National Institute of Health, USA). […]

[2] = tested on: leukocyte extravasation signaling; test: Hepatic gene expression profiling (RNA sequencing, pathway analysis) in APOE*3Leiden.CETP mice; format: in vivo
Method: (§1) This experiment was performed to evaluate the effects of OCA and fenofibrate, alone or in combination, on the development of diet induced NASH and liver fibrosis in APOE*3Leiden.CETP transgenic mice. Hepatic gene expression profiling and subsequent pathway analysis were performed to determine whether the combination regulates novel genes not regulated by either monotherapy treatment, and/or more strongly regulates genes also impacted by the monotherapy.
(§2) Mice were fed a high fat chow (HFC) diet for […]. After 15 weeks on the HFC diet, HFC mice were matched into 7 groups based on age, body weight, plasma cholesterol and triglycerides after 4 h fasting. Mice were treated with of OCA and fenofibrate, alone or in combination beginning at week 15 and sacrificed at week 25 in an unfasted state. One week before sacrifice, mice were labeled with D20, by i.p. injection of a bolus of D20 and subsequent addition of 4% D20 to the drinking water. Plasma (EDTA) was obtained by heart puncture and stored at −70° C. The liver was weighed and 4 pieces of liver were isolated: 1 piece (medial lobe) was fixed in 10% formalin (for NASH and fibrosis histology) and 3 pieces (sinister lobe) were snap-frozen in liquid N2 and stored individually at −70° C.
Nucleic acid extraction was performed as described previously in detail (Verschuren et al., 2014). Briefly, total RNA was extracted from individual liver samples using glass beads and RNAzol (Campro Scientific, Veenendaal, The Netherlands). RNA concentration and quality was determined using the Fragment Analyzer (Advanced Analytical Technologies, USA) and the RNA 6000 Nano Lab-on-a-Chip kit and a Bioanalyzer 2100 (Agilent Technologies, Amstelveen, The Netherlands). All samples met the quality requirements and were used in the RNA sequencing procedure.
The NEBNext Ultra Directional RNA library Prep Kit for Illumina was used to process the samples. The sample preparation was performed according to the protocol “NEBNext Ultra Directional RNA Library Prep Kit for Illumina” (NEB #E7420S/L). Briefly, mRNA was isolated from total RNA using oligo-dT magnetic beads. After fragmentation of the mRNA, a cDNA synthesis was performed. This was used for ligation of sequencing adapters and PCR amplification of the resulting product. The quality and yield after sample preparation was measured with the Fragment Analyzer (Advanced Analytical Technologies, USA). The size of the resulting products was consistent with the expected size distribution (a broad peak between 300-500 bp).
Clustering and DNA sequencing using the Illumina […] was performed according manufacturer's protocols. Data was generated using single-end read sequencing protocol obtaining approx. 15 million reads per sample and 75 bp per read. Image analysis, base calling, and quality check was performed with the Illumina data analysis pipeline RTA v2.4.11 to generate the raw data (*.fastq-files).
The reads were mapped to the reference sequence Mus musculus GRCm38.p3 using a short read aligner based on Burrows-Wheeler Transform. The default mismatch rate of 2% (3 mismatches in a read of 150 bases) was used. Based on the mapped read locations in the alignment files (*.bam-files) the frequency of how often a read was mapped on a transcript was determined. The counts were saved to count-files, which served as input for downstream mRNA-seq differential expression analysis. The read counts were loaded into the DESeq package, a statistical package within the R platform. […]

[3] = tested on: APOE*3Leiden.CETP transgenic mice on high fat diet; test: Diet induced NASH in APOE*3Leiden.CETP mice, hepatic inflammation score; format: in vivo; conditions: for Inflammation (# of inflammatory cell foci): in high fat diet
Method: as §1
Male APOE*3Leiden.CETP transgenic mice (9-21 weeks old) were obtained and housed 2-5 mice per cage. The mice were fed a high fat diet containing 24% lard and 1% (w/w) cholesterol. The run in period was 15 weeks on the high fat diet. At week 16, mice were matched based on age, body weight, plasma cholesterol and triglycerides after 4 h fasting.
• Mice (n=15) were fed a high fat diet during the run in weeks 0 to 14. Group 2: HFC control group • Mice (n=15) were fed a high fat diet from weeks 0 to 24. Group 3: HFC+OCA • Mice (n=15) were fed a high fat diet supplemented with OCA at a dose of 10 mg/kg once daily from week 16 to 24. Group 4: HFC+low dose fenofibrate • Mice (n=15) were fed a high fat diet supplemented with fenofibrate at a dose of 10 mg/kg once daily from week 16 to 24. Group 5: HFC+high dose fenofibrate • Mice (n=15) were fed a high fat diet supplemented with fenofibrate at a dose of 40 mg/kg once daily from week 16 to 24. Group 6: HFC+OCA+low dose fenofibrate • Mice (n=15) were fed a high fat diet supplemented with OCA at a dose of 10 mg/kg once daily and fenofibrate at a dose of 10 mg/kg once daily from week 16 to 24. Group 7: HFC+OCA+high dose fenofibrate • Mice (n=15) were fed a high fat diet supplemented with OCA at a dose of 10 mg/kg once daily and fenofibrate at a dose of 40 mg/kg once daily from week 16 to 24. Group 8: Chow control group • Mice (n=8) were feed chow from week 0 to 24. Study Design
as §2
Inflammation is a key feature of NASH. Inflammation was categorized according to the procedure by Liang et al., PlosOne 2014 Dec. 9(12) and scored by quantitatively analyzing the number of inflammatory cells aggregates. In particular, the level of inflammation was evaluated by counting the number of inflammatory foci per field using a 100× magnification (view size of 3.1 mm2; average of five different fields).

[4] = high dose fenofibrate 40 mg/kg, alone or with OCA 10 mg/kg

With CC(C)c1c(C(=O)Nc2ccccc2)c(-c2ccccc2)c(-c2ccc(F)cc2)n1CC[C@@H](O)C[C@@H](O)CC(=O)O [ATO, atorvastatin, reference compound] the “Sirius red-positive area (%)” value [1] was 2.31 ± 0.63%.

In the case of CC(C)OC(=O)C(C)(C)Oc1ccc(C(=O)c2ccc(Cl)cc2)cc1 [fenofibrate], the “number of uniquely regulated genes” value ([2]; Venn diagram, OCA 10 mg/kg, fenofibrate 10 mg/kg, combination) is reported as 92, the “enrichment analysis of canonical (inflammatory) pathways” value ([2]; liver mRNA, OCA 10 mg/kg and/or low dose fenofibrate vs HFC) is reported as “no effect” and the “Inflammation (# of inflammatory cell foci)” value ([3]; OCA 10 mg/kg and/or low dose fenofibrate 10 mg/kg) is reported as 22.0 ± 15.6. For the same compound, the reduction in inflammation [3, 4] was −74% and the “Inflammation (# of inflammatory cell foci)” value [3, 4] was 7.1 ± 5.9.
